Values belong to the molecule of their own block, whether it stands above or below them. Where no end group is shown, it is not given here.
Assays:
soleus muscle = conditions: read-out: EC50 in the soleus muscle assay; typical range of amylin preparations; […] insulin
Method: The tendons of the muscles are ligated before attachment to stainless steel clips. […] Flasks are sealed and gassed continuously with O2 and CO2 in the ratio 19:1 (v/v). After pre-incubation of muscles in this medium for 30 min at 37° C. in an oscillating water bath, the muscles strips are transferred to similar vials containing identical medium (except pyruvate) with added [U-^14C] glucose (0.5 μCi/ml) and insulin (100 μU/ml). […] At the end of the incubation period, muscles are blotted and rapidly frozen in liquid N2. The concentration of lactate in the incubation medium can be determined spectrophotometrically and [U-^14C]glucose incorporation in glycogen measured.
Male Harlan Sprague-Dawley rats of approximately 200 g mass were used in order to maintain mass of the split soleus muscle less than 40 mg. The animals were fasted for 4 hours prior to sacrifice by decapitation. The skin was stripped from the lower limb which was then pinned out on corkboard. The tendo achilles was cut just above os calcis and m. gastrocnemius reflected out from the posterior aspect of the tibia. […]
^14C-glycogen determination was performed in a 7 mL scintillation vial. […] The remaining glycogen was redissolved in 1 mL water and 4 mL scintillation fluid and counted for ^14C. […]

[1] = system: caerulein-induced pancreatitis in ICR(CD-1) male mice; assay: Effect of amylin on caerulein-induced pancreatitis (plasma amylase); format: in vivo; conditions: amylin at levels as low as 0.01 μg injected at t=−5 min; plasma at 9 hours after first caerulein injection
Method: Male ICR mice, weighing approximately 20 g, were fasted overnight and throughout the experiment, but were allowed access to water ad libitum. […] At t=0, 0.01 μg/kg of caerulein in all but the normal group of mice. The dosing regimen for caerulein was repeated 3 times at 2 hour intervals. At t=9 hours, i.e., 9 hours after the first caerulein injection, the mice were bleed (orbital sinus) and the plasma assayed for amylase (Amylase 3 assay kit, Sigma Diagnostics Catalog #577-3, Sigma Diagnostics, St. Louis, Mo., USA).

[2] = human, in vivo; cited from earlier work
[3] = system: pancreatic enzyme secretion; conditions: rat model, doses resulting in physiological plasma concentrations; cited from earlier work
rat pancreas = assay: Inhibition of CCK-8 stimulated lipase and amylase secretion in rat pancreas (pancreatic juice collection in anesthetized rats); format: in vivo; conditions: for Amylase, % from CCK-8 stimulated / Lipase, % from CCK-8 stimulated / Pancreatic flow, % from CCK-8 stimulated: decrease versus CCK-8 alone
Method: Tracheotomy and cannulation of the right femoral artery were performed and body temperature was controlled with a thermoregulator (Model 73A, YSI, Yellow Springs, Ohio, USA) that switched a heated operating table. The femoral arterial line, used for blood sampling, was perfused with heparinized saline (2 u/ml) and connected to a pressure transducer for blood pressure recording (Spectramed P23XL transducer, Model 13-4615-58 amplifier, Gould, Cleveland, Ohio, USA). Through a midline incision two polyethylene cannulae were inserted into the common bile-pancreatic duct at a point about 0.5 cm above where the duct enters the pancreas. The first cannula was inserted up toward the liver to collect bile. The other end of this cannula was placed into the duodenum through a small incision in the duodenum. Thus, bile flowed directly from the liver to the small intestine, being shunted away from the pancreas completely.
A second polyethylene cannula was inserted into the common bile-pancreatic duct near the first but in the opposite direction to collect pancreatic juice. The other end of the pancreatic duct was tied off with a suture just at the point where it enters the duodenum, forcing any pancreatic juice produced to flow through the second cannula for collection. Pancreatic juice was collected every 15 min from −30 to 90 min. […] The volume of juice was measured and aliquots taken for enzymes determination. Amylase and lipase, which are secreted in pancreatic juice in an active form, were tested using diagnostic kits (Lipase-PS assay kit, Sigma Diagnostics Catalog #805-A and Amylase 3 assay kit, Sigma Diagnostics Catalog #577-3, Sigma Diagnostics, St. Louis, Mo., USA). To perform both assays, pancreatic juice was diluted with saline in proportion 1:2000. Activity of enzymes was expressed in units per 15 min (activity in pancreatic juice collected every 15 min).

[4] = Amylin activity in vivo in treated test animals (hyperlactemia followed by hyperglycemia); conditions: e.g., provoking marked hyperlactemia followed by hyperglycemia
[5] = Amylin 1 μg s.c. alone, no CCK-8
[6] = Amylin 10 μg s.c. alone, no CCK-8
[7] = CCK-8 1 μg and Amylin 0.1 μg s.c.
[8] = CCK-8 1 μg and Amylin 0.3 μg s.c.
[9] = CCK-8 1 μg and Amylin 1.0 μg s.c.
[10] = CCK-8 1 μg and Amylin 10.0 μg s.c.
[11] = s.c. amylin with CCK-8 1 μg, dose-dependent
[12] = ±0.09 log units, first ED50 sentence of b123
[13] = ±0.09 log units, second ED50 sentence of b123

Molecule: CC[C@H](C)[C@H](NC(=O)[C@H](C)NC(=O)CNC(=O)[C@H](Cc1ccccc1)NC(=O)[C@H](CC(N)=O)NC(=O)[C@H](CC(N)=O)NC(=O)[C@H](CO)NC(=O)[C@H](CO)NC(=O)[C@H](Cc1c[nH]cn1)NC(=O)[C@@H](NC(=O)[C@H](CC(C)C)NC(=O)[C@H](Cc1ccccc1)NC(=O)[C@H](CC(N)=O)NC(=O)[C@H](C)NC(=O)[C@H](CC(C)C)NC(=O)[C@H](CCCNC(=N)N)NC(=O)[C@H](CCC(N)=O)NC(=O)[C@@H](NC(=O)[C@H](C)NC(=O)[C@@H]1CSSC[C@H](NC(=O)[C@@H](N)CCCCN)C(=O)N[C@@H](CC(N)=O)C(=O)N[C@@H]([C@@H](C)O)C(=O)N[C@@H](C)C(=O)N[C@@H]([C@@H](C)O)C(=O)N1)[C@@H](C)O)C(C)C)C(=O)N[C@@H](CC(C)C)C(=O)N[C@@H](CO)C(=O)N[C@@H](CO)C(=O)N[C@H](C(=O)N[C@@H](CC(N)=O)C(=O)N[C@H](C(=O)NCC(=O)N[C@@H](CO)C(=O)N[C@@H](CC(N)=O)C(=O)N[C@H](C(=O)N[C@@H](Cc1ccc(O)cc1)C(N)=O)[C@@H](C)O)C(C)C)[C@@H](C)O [human amylin]
EC50 (soleus muscle): 1 to 10 nM

Amylase, % from CCK-8 stimulated (rat pancreas; [7]): 25.83%
Lipase, % from CCK-8 stimulated (rat pancreas; [7]): 34.65%
Pancreatic flow, % from CCK-8 stimulated (rat pancreas; [7]): 21.21%
Amylase, % from CCK-8 stimulated (rat pancreas; [8]): 40.90%
Lipase, % from CCK-8 stimulated (rat pancreas; [8]): 57.25%
Pancreatic flow, % from CCK-8 stimulated (rat pancreas; [8]): 32.32%
Amylase, % from CCK-8 stimulated (rat pancreas; [9]): 57.32%
Lipase, % from CCK-8 stimulated (rat pancreas; [9]): 67.87%
Pancreatic flow, % from CCK-8 stimulated (rat pancreas; [9]): 41.41%
Amylase, % from CCK-8 stimulated (rat pancreas; [10]): 23.07%
Lipase, % from CCK-8 stimulated (rat pancreas; [10]): 48.77%
Pancreatic flow, % from CCK-8 stimulated (rat pancreas; [10]): 9.09%
inhibition of cholecystokinin stimulated pancreatic amylase activity (maximum) (rat pancreas; [11]): up to 67.9%
inhibition of secretion of cholecystokinin stimulated pancreatic lipase (maximum) (rat pancreas; [11]): up to 57.3%
Molecule: Amylin: rat amylin (AR905-80) in Example II; amylin (AC128, Amylin Pharmaceuticals, Inc.) in Example I; 37 amino acid peptide hormone (KCNTATCATQRLANFLVHSSNNFGAILSSTNVGSNTY)
reduction of elevated plasma amylase produced by caerulein [1]: effectively reduce the elevated levels of plasma amylase
tolerability [2]: well tolerated
effect on basal pancreatic enzyme secretion [3]: no effect
Amylase (rat pancreas; [5]): 80.21 ± 35.71 U/45 min
Lipase (rat pancreas; [5]): 149.51 ± 86.79 U/45 min
Pancreatic flow (rat pancreas; [5]): 30 ± 6 μl/45 min
Amylase (rat pancreas; [6]): 61.95 ± 24.51 U/45 min
Lipase (rat pancreas; [6]): 64.67 ± 21.59 U/45 min
Pancreatic flow (rat pancreas; [6]): 13 ± 4 μl/45 min
Amylase (rat pancreas; [7]): 340.98 ± 40.91 U/45 min
Lipase (rat pancreas; [7]): 472.82 ± 58.67 U/45 min
Pancreatic flow (rat pancreas; [7]): 78 ± 8 μl/45 min
Amylase (rat pancreas; [8]): 271.73 ± 48.38 U/45 min
Lipase (rat pancreas; [8]): 309.30 ± 74.31 U/45 min
Pancreatic flow (rat pancreas; [8]): 67 ± 6 μl/45 min
Amylase (rat pancreas; [9]): 193.93 ± 34.40 U/45 min
Lipase (rat pancreas; [9]): 232.41 ± 58.01 U/45 min
Pancreatic flow (rat pancreas; [9]): 58 ± 12 μl/45 min
Amylase (rat pancreas; [10]): 353.68 ± 78.85 U/45 min
Lipase (rat pancreas; [10]): 370.65 ± 85.67 U/45 min
Pancreatic flow (rat pancreas; [10]): 90 ± 13 μl/45 min
ED50 for suppression of pancreatic amylase activity (rat pancreas; [12]): 129 pmol/kg
ED50 for suppression of pancreatic lipase activity (rat pancreas; [12]): 129 pmol/kg
ED50 for suppression of CCK-8 stimulated pancreatic amylase activity (rat pancreas; [13]): 123 pmol/kg
ED50 for suppression of CCK-8 stimulated pancreatic lipase activity (rat pancreas; [13]): 123 pmol/kg

Molecule: ^28Pro-h-amylin (KCNTATCATQRLANFLVHSSNNFGAILPSTNVGSNTY)
amylin activity in vivo [4]: show amylin activity in vivo

Molecule: cholecystokinin octapeptide [CCK-8, reference compound]
Amylase (rat pancreas; CCK-8 1 μg s.c. alone): 459.76 ± 52.49 U/45 min
Lipase (rat pancreas; CCK-8 1 μg s.c. alone): 723.56 ± 100.56 U/45 min
Pancreatic flow (rat pancreas; CCK-8 1 μg s.c. alone): 99 ± 13 μl/45 min

Molecule: des-^1Lys-h-amylin (CNTATCATQRLANFLVHSSNNFGAILSSTNVGSNTY; ends and bridges not checked; cysteine pairing not given here; UniProt P10997 35-70, looked up, fragment)
amylin activity in vivo [4]: show amylin activity in vivo

Molecule: des-^1Lys^18Arg^25,28Pro-h-amylin
amylin activity in vivo [4]: show amylin activity in vivo

From US8168233B2 (Amylin Pharmaceuticals, Inc., priority 2002, dated 2012)
